The text below walks through data of the supplement of paper PMC11208160.
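Also: IS621 recombinase and bridge RNA in Escherichia coli cells.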

This data set is described as follows: recombinant barcode read abundance after kanamycin selection (control-corrected) (log10(CPM+1)); higher = more efficient recombination; sequences stand for … in AGTGCAGAGAAAATCGGCCAGTTTTCTCTGCCTGCAGTCCGCATGCCGT…AGATTTATGCAGCGGACTGCCTTTCTCCCAAAGTGATAAACCGGACAGTATCATGGACCGGTTTTCCCGGTAATCCGTATTTGCAAGGTTGGTTTCACT; site = the 11-nt target. The method, then:
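Pooled E. coli target-specificity screen for the IS621 bridge recombinase. Each library plasmid pairs an 11-nt target (CT core) with a bridge RNA whose target-binding loop (9-nt LTG + 4-nt RTG) is reprogrammed; the rest of the 177-nt WT IS621 bridge RNA scaffold is fixed. The plasmid is co-electroporated with a WT donor plasmid; recombinase is induced with 0.1 mM IPTG and recombinants are selected on kanamycin. Recombinant barcodes are sequenced, converted to CPM, averaged over two biological replicates and corrected by the unselected control CPM. Molecule = full bridge RNA written as DNA: LTG = specificity nt 1-9, RTG = reverse complement of specificity nt 8-11, in the WT scaffold.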
“AAAACTACTTGGGTTCTAACCTGTTGCCA (site AAAACTACTTG)”: the “recombinant barcode read abundance (log10)” value was 0.2.

Turning to “AAAACTACTTGGGTTCTAACCTGTTGCCA (site AATGCTACTTG)”, the “recombinant barcode read abundance (log10)” value is 0.15.

On to “AAAAGCCCTTGGGTTCTAACCTGTTGCCT (site AAAAGCCCTAG)”, for which the “recombinant barcode read abundance (log10)” value is 0.77. Next, “AAAAGCCCTTGGGTTCTAACCTGTTGCCT (site ACAAGCCCTAG)”: 0.154; “AAAAGCCCTTGGGTTCTAACCTGTTGCCT (site AGAAGCCCTAG)”: 0.0771. The same measure for “AAAAGCCCTTGGGTTCTAACCTGTTGCCT (site ATAAGCCCTAG)”: 0.357; for “AAACGCTCTTGGGTTCTAACCTGTTGCCT (site AAACGCTCTAG)”: 1.75. The same measure for “AAACGCTCTTGGGTTCTAACCTGTTGCCT (site TAACGCTCTAG)”: 0.446; for “AAACTAACTTGGGTTCTAACCTGTTGCCT (site AAACTAACTAG)”: 1.31. Turning to “AAACTAACTTGGGTTCTAACCTGTTGCCT (site ACACTAACTAG)”, the “recombinant barcode read abundance (log10)” value came to 0.167.

Regarding “AAACTAACTTGGGTTCTAACCTGTTGCCT (site AGACTAACTAG)”, the “recombinant barcode read abundance (log10)” value was 0.0602.

For “AAACTAACTTGGGTTCTAACCTGTTGCCT (site ATACTAACTAG)”, the “recombinant barcode read abundance (log10)” value amounted to 0.073.

With “AAACTTACTTGGGTTCTAACCTGTTGCCT (site AAACTTACTAG)”, the “recombinant barcode read abundance (log10)” value was 0.721. Next, “AAACTTACTTGGGTTCTAACCTGTTGCCT (site AGATTTACTAG)”: 0.0102. Next, “AAAGCTCCTTGGGTTCTAACCTGTTGCTT (site AAAGCTACTAG)”: 0.0734; “AAAGCTCCTTGGGTTCTAACCTGTTGCTT (site AAAGCTCCTAA)”: 0.318; “AAAGGGACTTGGGTTCTAACCTGTTGCCT (site AAAGGGACTAG)”: 2.08. “AAAGGGACTTGGGTTCTAACCTGTTGCCT (site AAGGAGACTAG)”: the “recombinant barcode read abundance (log10)” value was 0.191.

In the case of “AAATCTGCTTGGGTTCTAACCTGTTGCCT (site AAATCTGCTAG)”, the “recombinant barcode read abundance (log10)” value was found to be 0.122. The same measure for “AAATCTGCTTGGGTTCTAACCTGTTGCCT (site GGTGGGACTGT)”: 0.229.

As for “AACAAGCCTTGGGTTCTAACCTGTTGCTG (site AACAAGCCTCA)”, the “recombinant barcode read abundance (log10)” value was 0.896.

Regarding “AACAAGCCTTGGGTTCTAACCTGTTGCTG (site AACATGCCTAA)”, the “recombinant barcode read abundance (log10)” value came to 0.0487. Regarding “AACACGACTTGGGTTCTAACCTGTTGCTC (site AACACGACTGA)”, the “recombinant barcode read abundance (log10)” value was 0.171.

For the sequence “AACACGACTTGGGTTCTAACCTGTTGCTC (site CCATATGCTAG)”, the “recombinant barcode read abundance (log10)” value came out at 0.235.

As to “AACAGGCCTTGGGTTCTAACCTGTTGCCT (site AACAGGCCTAG)”, the “recombinant barcode read abundance (log10)” value came to 0.0525. Next, “AACAGGCCTTGGGTTCTAACCTGTTGCCT (site TGTGACACTTT)”: 0. Next, “AACATACCTTGGGTTCTAACCTGTTGCCT (site AACATACCTAG)”: 0.737; “AACATACCTTGGGTTCTAACCTGTTGCCT (site ATCATTCCTAG)”: 0.564; “AACATCACTTGGGTTCTAACCTGTTGCCG (site AACATCACTCG)”: 1.08. The same measure for “AACATCACTTGGGTTCTAACCTGTTGCCG (site AGCATCACTAG)”: 0. “AACCACTCTTGGGTTCTAACCTGTTGCCT (site AACCACTCTAG)”: the “recombinant barcode read abundance (log10)” value was determined as 2.42.

In the case of “AACCACTCTTGGGTTCTAACCTGTTGCCT (site CACCACTCTAG)”, the “recombinant barcode read abundance (log10)” value amounted to 0.942. The same measure for “AACCACTCTTGGGTTCTAACCTGTTGCCT (site GACCACTCTAG)”: 0.266. Consider “AACCACTCTTGGGTTCTAACCTGTTGCCT (site TACCACTCTAG)”, for which the “recombinant barcode read abundance (log10)” value came out at 1.46. Regarding “AACCAGTCTTGGGTTCTAACCTGTTGCCG (site AACCAGTCTCG)”, the “recombinant barcode read abundance (log10)” value was found to be 0.898. On to “AACCAGTCTTGGGTTCTAACCTGTTGCCG (site ACCCAGTCTTG)”, for which the “recombinant barcode read abundance (log10)” value was found to be 0.033.

Take “AACCCACCTTGGGTTCTAACCTGTTGCCT (site AACCCACCTAG)”: the “recombinant barcode read abundance (log10)” value was determined as 1.97.

Regarding “AACCCACCTTGGGTTCTAACCTGTTGCCT (site CACCCACCTAG)”, the “recombinant barcode read abundance (log10)” value turned out to be 0.56. Next, “AACCCACCTTGGGTTCTAACCTGTTGCCT (site GACCCACCTAG)”: 0.0506; “AACCCACCTTGGGTTCTAACCTGTTGCCT (site TACCCACCTAG)”: 0.997; “AACGCCACTTGGGTTCTAACCTGTTGCCT (site AACGCCACTAG)”: 0.0293. The same measure for “AACGCCACTTGGGTTCTAACCTGTTGCCT (site GACGCCACTAG)”: 0.0328; for “AACGGAGCTTGGGTTCTAACCTGTTGCGG (site AACGGAGCTCC)”: 1.78. The same measure for “AACGGAGCTTGGGTTCTAACCTGTTGCGG (site TGCGGAGCTCC)”: 0.699; for “AACGTACCTTGGGTTCTAACCTGTTGCAG (site AACGTACCTCT)”: 1.28. For the sequence “AACGTACCTTGGGTTCTAACCTGTTGCAG (site GTGAAGACTAA)”, the “recombinant barcode read abundance (log10)” value is 0.0773. Next, “AACTAATCTTGGGTTCTAACCTGTTGCCT (site AACTAATCTAG)”: 0.327. Turning to “AACTAATCTTGGGTTCTAACCTGTTGCCT (site AACTCATCTAG)”, the “recombinant barcode read abundance (log10)” value worked out at 0.0864. The same measure for “AACTAATCTTGGGTTCTAACCTGTTGCCT (site AACTGATCTAG)”: 0.0845. For the sequence “AACTAATCTTGGGTTCTAACCTGTTGCCT (site AACTTATCTAG)”, the “recombinant barcode read abundance (log10)” value was 0.0117.

With “AACTAGTCTTGGGTTCTAACCTGTTGCTA (site AACCAGTCTTC)”, the “recombinant barcode read abundance (log10)” value came out at 0.0577. The same measure for “AACTAGTCTTGGGTTCTAACCTGTTGCTA (site AACTAGTCTTA)”: 1.27; for “AACTATTCTTGGGTTCTAACCTGTTGCCT (site AACTATTCTAG)”: 0.374.

“AACTATTCTTGGGTTCTAACCTGTTGCCT (site ATGTATTCTAG)”: the “recombinant barcode read abundance (log10)” value came to 0.114. Next, “AACTCATCTTGGGTTCTAACCTGTTGCCT (site AACTAATCTAG)”: 0.0366; “AACTCATCTTGGGTTCTAACCTGTTGCCT (site AACTCATCTAG)”: 0.378. Next, “AACTCATCTTGGGTTCTAACCTGTTGCCT (site AACTGATCTAG)”: 0.149; “AACTCATCTTGGGTTCTAACCTGTTGCCT (site AACTTATCTAG)”: 0.0223; “AACTTATCTTGGGTTCTAACCTGTTGCCT (site AACTAATCTAG)”: 1.02. For “AACTTATCTTGGGTTCTAACCTGTTGCCT (site AACTCATCTAG)”, the “recombinant barcode read abundance (log10)” value was determined as 0.0843. The same measure for “AACTTATCTTGGGTTCTAACCTGTTGCCT (site AACTGATCTAG)”: 0.0896; for “AACTTATCTTGGGTTCTAACCTGTTGCCT (site AACTTATCTAG)”: 0.812; for “AACTTCACTTGGGTTCTAACCTGTTGCCT (site AACTTCACTAG)”: 1.12. The same measure for “AACTTCACTTGGGTTCTAACCTGTTGCCT (site AACTTCCCTAG)”: 0.013; for “AACTTCACTTGGGTTCTAACCTGTTGCCT (site AACTTCGCTAG)”: 0.364; for “AACTTCACTTGGGTTCTAACCTGTTGCCT (site AACTTCTCTAG)”: 0.0193. “AACTTTCCTTGGGTTCTAACCTGTTGCAT (site AACTATCCTAT)”: the “recombinant barcode read abundance (log10)” value stood at 0.0732. The same measure for “AACTTTCCTTGGGTTCTAACCTGTTGCAT (site AACTCTCCTAT)”: 0.465; for “AACTTTCCTTGGGTTCTAACCTGTTGCAT (site AACTGTCCTAT)”: 0.0344; for “AACTTTCCTTGGGTTCTAACCTGTTGCAT (site AACTTTCCTAT)”: 0.259. The same measure for “AAGAAGCCTTGGGTTCTAACCTGTTGCCT (site AAGAAGCCTAG)”: 2.01. For “AAGAAGCCTTGGGTTCTAACCTGTTGCCT (site CAGAAGCCTAG)”, the “recombinant barcode read abundance (log10)” value came to 0.717. “AAGAAGCCTTGGGTTCTAACCTGTTGCCT (site GAGAAGCCTAG)”: the “recombinant barcode read abundance (log10)” value is 0.14.
